Laboratory results as given in PMC4539253 (Bioorganic & medicinal chemistry letters, 2014).
Marks after values point to notes of the source that are not given here.

Experiments:
[1] = biological target: CCR2 (Homo sapiens, UniProt P41597); experiment: CCR2 binding
[2] = system: Caco-2; experiment: Caco-2 permeability; format: in vitro ADME; details: <15 is limit of detection
[3] = biological target: mouse CCR2 (Mus musculus, UniProt P51683); experiment: Activity versus mouse CCR2
[4] = system: human-CCR2 knock-in mice; experiment: 6-h thioglycollate; details: mouse, in vivo
[5] = system: wild-type mice; experiment: TG-induced peritonitis model using wild-type mice; format: in vivo, mouse; details: data not shown

CCR2, sequence (P41597 whole entry): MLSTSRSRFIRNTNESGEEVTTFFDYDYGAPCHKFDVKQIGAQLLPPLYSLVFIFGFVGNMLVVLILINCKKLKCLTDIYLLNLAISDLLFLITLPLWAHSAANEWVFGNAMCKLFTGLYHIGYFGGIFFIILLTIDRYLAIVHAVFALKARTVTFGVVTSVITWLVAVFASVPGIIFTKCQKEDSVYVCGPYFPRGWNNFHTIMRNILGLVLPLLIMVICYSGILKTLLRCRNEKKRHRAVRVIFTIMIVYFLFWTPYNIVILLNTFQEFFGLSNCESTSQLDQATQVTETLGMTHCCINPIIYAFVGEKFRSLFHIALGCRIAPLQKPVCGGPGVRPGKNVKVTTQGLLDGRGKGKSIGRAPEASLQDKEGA
mouse CCR2, sequence (P51683 whole entry): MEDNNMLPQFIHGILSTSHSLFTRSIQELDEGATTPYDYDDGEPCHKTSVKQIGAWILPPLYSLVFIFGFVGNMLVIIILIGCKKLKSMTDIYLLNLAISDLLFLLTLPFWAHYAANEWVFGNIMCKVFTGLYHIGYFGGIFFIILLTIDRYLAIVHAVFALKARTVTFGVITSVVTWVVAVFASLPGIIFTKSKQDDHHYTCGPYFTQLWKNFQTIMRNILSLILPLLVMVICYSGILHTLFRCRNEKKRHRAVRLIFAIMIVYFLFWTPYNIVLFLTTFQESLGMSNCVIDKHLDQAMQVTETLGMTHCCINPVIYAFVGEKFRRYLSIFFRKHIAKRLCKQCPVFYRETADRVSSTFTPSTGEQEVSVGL

| SMILES | Caco-2 PAP-BL [2] | activity versus mouse CCR2 [3] | further results |
| --- | --- | --- | --- |
| CC(C)N(C)[C@@H]1CC[C@H](N2CC[C@H](NC(=O)c3cccc(C(F)(F)F)c3)C2=O)[C@H](CS(=O)(=O)C(C)C)C1 [Compound 10] | <15 nm/s | – | increase in CCR2 binding affinity as compared to 2 ([1]; compared to 2): 6 fold |
| CC(C)N(C)[C@@H]1CC[C@H](N2CC[C@H](NC(=O)c3cccc(C(F)(F)F)c3)C2=O)[C@H](CS(C)(=O)=O)C1 [Compound 2] | <15 nm/s | poor activity | loss in CCR2 binding affinity as compared to 1 ([1]; compared to 1): ~2 fold; inflammatory monocytes (Ly6C+F4/80+) in blood as compared to vehicle [4]: significant reduction |
| CC(C)N(C)[C@@H]1CC[C@H](N2CC[C@H](NC(=O)c3cccc(C(F)(F)F)c3)C2=O)[C@H](CS(=O)(=O)C(C)(C)C)C1 [Compound 12] | 30 nm/s | poor activity | activity in TG-induced peritonitis model [5]: did not show any activity |
| CC(C)N(C)[C@@H]1CC[C@H](N2CC[C@H](NC(=O)c3cccc(C(F)(F)F)c3)C2=O)[C@H](CS(=O)(=O)c2ccccc2)C1 [Compound 1] | <15 ^e nm/s | – | – |
| CCS(=O)(=O)C[C@@H]1C[C@H](N(C)C(C)C)CC[C@@H]1N1CC[C@H](NC(=O)c2cccc(C(F)(F)F)c2)C1=O [Compound 8] | <15 nm/s | – | IC50 [1]: 1.3 ± 0.02 nM |
